Results reported in ChEMBL document CHEMBL3885881, “DrugMatrix”.

Species on record: Rattus norvegicus
Assay: DrugMatrix - Regimen: Daily Repeat
Type: toxicity, organism-based, Sprague-Dawley
Set-up: regimen Daily Repeat, gender Male, age 6-8 weeks
Settings: in vivo, po, route oral GAVAGE, vehicle .5 % CMC; for BASOPHIL / EOSINOPHIL / ERYTHROCYTE COUNT / HEMATOCRIT / HEMOGLOBIN / LEUKOCYTE COUNT / LYMPHOCYTE / MEAN CORPUSCULAR HEMOGLOBIN / MEAN CORPUSCULAR HEMOGLOBIN CONCENTRATION / MEAN CORPUSCULAR VOLUME / MONOCYTE / NEUTROPHIL / PLATELET COUNT: tissue Blood; for ALANINE AMINOTRANSFERASE / ALBUMIN / ALKALINE PHOSPHATASE / ASPARTATE AMINOTRANSFERASE / BLOOD UREA NITROGEN / CHLORIDE / CHOLESTEROL / CREATINE PHOSPHOKINASE / CREATININE / GLUCOSE / PHOSPHORUS / POTASSIUM / SODIUM / TOTAL BILIRUBIN / TOTAL PROTEIN: tissue Plasma
[1] = 0 mg/kg, 72 h, dose level Control, time 3 day
[2] = 0 mg/kg, 120 h, dose level Control, time 5 day
[3] = 150 mg/kg, 72 h, dose level Low, time 3 day
[4] = 150 mg/kg, 120 h, dose level Low, time 5 day
[5] = 1500 mg/kg, 72 h, dose level High, time 3 day
[6] = 1500 mg/kg, 120 h, dose level High, time 5 day

Structure (SMILES): C#C[C@]1(O)CC[C@H]2[C@@H]3CCC4=CC(=O)CC[C@]4(C)[C@H]3CC[C@@]21C [ETHISTERONE]
- BASOPHIL [1]: 0.68%
- EOSINOPHIL [1]: 0.46%
- ERYTHROCYTE COUNT [1]: 7.15 x10E6/uL
- HEMATOCRIT [1]: 45.44%
- HEMOGLOBIN [1]: 14.1 G/DL
- LEUKOCYTE COUNT [1]: 9.78 x10E3/uL
- LYMPHOCYTE [1]: 84.44%
- MEAN CORPUSCULAR HEMOGLOBIN [1]: 19.72 pg
- MEAN CORPUSCULAR HEMOGLOBIN CONCENTRATION [1]: 31 G/DL
- MEAN CORPUSCULAR VOLUME [1]: 63.66 fL
- MONOCYTE [1]: 2.14%
- NEUTROPHIL [1]: 11.16%
- PLATELET COUNT [1]: 1378.2 x10E3/uL
- ALANINE AMINOTRANSFERASE [1]: 42.33 u/L
- ALBUMIN [1]: 3.8 G/DL
- ALKALINE PHOSPHATASE [1]: 388.17 u/L
- ASPARTATE AMINOTRANSFERASE [1]: 68 u/L
- BLOOD UREA NITROGEN [1]: 16.17 mg/dL
- CHLORIDE [1]: 96.67 MEQ/L
- CHOLESTEROL [1]: 71 mg/dL
- CREATINE PHOSPHOKINASE [1]: 156.17 u/L
- CREATININE [1]: 0.57 mg/dL
- GLUCOSE [1]: 193.67 mg/dL
- PHOSPHORUS [1]: 11.43 mg/dL
- POTASSIUM [1]: 7 MEQ/L
- SODIUM [1]: 140.33 MEQ/L
- TOTAL BILIRUBIN [1]: 0.48 mg/dL
- TOTAL PROTEIN [1]: 6.8 G/DL
- BASOPHIL [2]: 1.47%
- EOSINOPHIL [2]: 1%
- ERYTHROCYTE COUNT [2]: 7.12 x10E6/uL
- HEMATOCRIT [2]: 45.47%
- HEMOGLOBIN [2]: 14.1 G/DL
- LEUKOCYTE COUNT [2]: 11.38 x10E3/uL
- LYMPHOCYTE [2]: 82.57%
- MEAN CORPUSCULAR HEMOGLOBIN [2]: 19.82 pg
- MEAN CORPUSCULAR HEMOGLOBIN CONCENTRATION [2]: 31.02 G/DL
- MEAN CORPUSCULAR VOLUME [2]: 63.88 fL
- MONOCYTE [2]: 2.2%
- NEUTROPHIL [2]: 11.97%
- PLATELET COUNT [2]: 1267 x10E3/uL
- ALANINE AMINOTRANSFERASE [2]: 38 u/L
- ALBUMIN [2]: 3.72 G/DL
- ALKALINE PHOSPHATASE [2]: 391 u/L
- ASPARTATE AMINOTRANSFERASE [2]: 65.83 u/L
- BLOOD UREA NITROGEN [2]: 14.17 mg/dL
- CHLORIDE [2]: 107.67 MEQ/L
- CHOLESTEROL [2]: 61 mg/dL
- CREATINE PHOSPHOKINASE [2]: 148.33 u/L
- CREATININE [2]: 0.57 mg/dL
- GLUCOSE [2]: 177.17 mg/dL
- PHOSPHORUS [2]: 12.07 mg/dL
- POTASSIUM [2]: 7.2 MEQ/L
- SODIUM [2]: 151.5 MEQ/L
- TOTAL BILIRUBIN [2]: 0.58 mg/dL
- TOTAL PROTEIN [2]: 6.72 G/DL
- BASOPHIL [3]: 0.73%
- EOSINOPHIL [3]: 0.33%
- ERYTHROCYTE COUNT [3]: 6.6 x10E6/uL
- HEMATOCRIT [3]: 41.67%
- HEMOGLOBIN [3]: 13.17 G/DL
- LEUKOCYTE COUNT [3]: 10.76 x10E3/uL
- LYMPHOCYTE [3]: 79.57%
- MEAN CORPUSCULAR HEMOGLOBIN [3]: 19.9 pg
- MEAN CORPUSCULAR HEMOGLOBIN CONCENTRATION [3]: 31.57 G/DL
- MEAN CORPUSCULAR VOLUME [3]: 63.13 fL
- MONOCYTE [3]: 3.47%
- NEUTROPHIL [3]: 14.4%
- PLATELET COUNT [3]: 1218.67 x10E3/uL
- ALANINE AMINOTRANSFERASE [3]: 35.67 u/L
- ALBUMIN [3]: 3.57 G/DL
- ALKALINE PHOSPHATASE [3]: 319.33 u/L
- ASPARTATE AMINOTRANSFERASE [3]: 62.67 u/L
- BLOOD UREA NITROGEN [3]: 13.33 mg/dL
- CHLORIDE [3]: 95.33 MEQ/L
- CHOLESTEROL [3]: 60 mg/dL
- CREATINE PHOSPHOKINASE [3]: 132 u/L
- CREATININE [3]: 0.5 mg/dL
- GLUCOSE [3]: 185.33 mg/dL
- PHOSPHORUS [3]: 12.3 mg/dL
- POTASSIUM [3]: 6.3 MEQ/L
- SODIUM [3]: 138.33 MEQ/L
- TOTAL BILIRUBIN [3]: 0.4 mg/dL
- TOTAL PROTEIN [3]: 6.37 G/DL
- BASOPHIL [4]: 0.93%
- EOSINOPHIL [4]: 0.27%
- ERYTHROCYTE COUNT [4]: 7.3 x10E6/uL
- HEMATOCRIT [4]: 45.67%
- HEMOGLOBIN [4]: 14.1 G/DL
- LEUKOCYTE COUNT [4]: 8.86 x10E3/uL
- LYMPHOCYTE [4]: 86.5%
- MEAN CORPUSCULAR HEMOGLOBIN [4]: 19.3 pg
- MEAN CORPUSCULAR HEMOGLOBIN CONCENTRATION [4]: 30.87 G/DL
- MEAN CORPUSCULAR VOLUME [4]: 62.6 fL
- MONOCYTE [4]: 2.7%
- NEUTROPHIL [4]: 8.87%
- PLATELET COUNT [4]: 1265.33 x10E3/uL
- ALANINE AMINOTRANSFERASE [4]: 35.67 u/L
- ALBUMIN [4]: 3.6 G/DL
- ALKALINE PHOSPHATASE [4]: 382.67 u/L
- ASPARTATE AMINOTRANSFERASE [4]: 57.67 u/L
- BLOOD UREA NITROGEN [4]: 14.33 mg/dL
- CHLORIDE [4]: 105.67 MEQ/L
- CHOLESTEROL [4]: 39.67 mg/dL
- CREATINE PHOSPHOKINASE [4]: 113.33 u/L
- CREATININE [4]: 0.57 mg/dL
- GLUCOSE [4]: 167 mg/dL
- PHOSPHORUS [4]: 11.77 mg/dL
- POTASSIUM [4]: 7.4 MEQ/L
- SODIUM [4]: 151 MEQ/L
- TOTAL BILIRUBIN [4]: 0.4 mg/dL
- TOTAL PROTEIN [4]: 6.53 G/DL
- BASOPHIL [5]: 0.3%
- EOSINOPHIL [5]: 0.23%
- ERYTHROCYTE COUNT [5]: 7.32 x10E6/uL
- HEMATOCRIT [5]: 46.8%
- HEMOGLOBIN [5]: 15 G/DL
- LEUKOCYTE COUNT [5]: 13.73 x10E3/uL
- LYMPHOCYTE [5]: 85.93%
- MEAN CORPUSCULAR HEMOGLOBIN [5]: 20.53 pg
- MEAN CORPUSCULAR HEMOGLOBIN CONCENTRATION [5]: 32.13 G/DL
- MEAN CORPUSCULAR VOLUME [5]: 63.97 fL
- MONOCYTE [5]: 2.43%
- NEUTROPHIL [5]: 9.77%
- PLATELET COUNT [5]: 1394 x10E3/uL
- ALANINE AMINOTRANSFERASE [5]: 25.33 u/L
- ALBUMIN [5]: 3.93 G/DL
- ALKALINE PHOSPHATASE [5]: 316.67 u/L
- ASPARTATE AMINOTRANSFERASE [5]: 60.33 u/L
- BLOOD UREA NITROGEN [5]: 13.67 mg/dL
- CHLORIDE [5]: 96 MEQ/L
- CHOLESTEROL [5]: 34 mg/dL
- CREATINE PHOSPHOKINASE [5]: 152 u/L
- CREATININE [5]: 0.43 mg/dL
- GLUCOSE [5]: 166.67 mg/dL
- PHOSPHORUS [5]: 12.2 mg/dL
- POTASSIUM [5]: 6.83 MEQ/L
- SODIUM [5]: 142 MEQ/L
- TOTAL BILIRUBIN [5]: 0.3 mg/dL
- TOTAL PROTEIN [5]: 7.17 G/DL
- BASOPHIL [6]: 0.93%
- EOSINOPHIL [6]: 0.27%
- ERYTHROCYTE COUNT [6]: 7.53 x10E6/uL
- HEMATOCRIT [6]: 48.07%
- HEMOGLOBIN [6]: 14.97 G/DL
- LEUKOCYTE COUNT [6]: 7.76 x10E3/uL
- LYMPHOCYTE [6]: 80.6%
- MEAN CORPUSCULAR HEMOGLOBIN [6]: 19.97 pg
- MEAN CORPUSCULAR HEMOGLOBIN CONCENTRATION [6]: 31.2 G/DL
- MEAN CORPUSCULAR VOLUME [6]: 63.93 fL
- MONOCYTE [6]: 3.3%
- NEUTROPHIL [6]: 13.73%
- PLATELET COUNT [6]: 1362.33 x10E3/uL
- ALANINE AMINOTRANSFERASE [6]: 31.67 u/L
- ALBUMIN [6]: 3.73 G/DL
- ALKALINE PHOSPHATASE [6]: 496 u/L
- ASPARTATE AMINOTRANSFERASE [6]: 57.33 u/L
- BLOOD UREA NITROGEN [6]: 11 mg/dL
- CHLORIDE [6]: 105.67 MEQ/L
- CHOLESTEROL [6]: 35.33 mg/dL
- CREATINE PHOSPHOKINASE [6]: 132.67 u/L
- CREATININE [6]: 0.57 mg/dL
- GLUCOSE [6]: 185.67 mg/dL
- PHOSPHORUS [6]: 13.8 mg/dL
- POTASSIUM [6]: 7.47 MEQ/L
- SODIUM [6]: 151.33 MEQ/L
- TOTAL BILIRUBIN [6]: 0.33 mg/dL
- TOTAL PROTEIN [6]: 6.83 G/DL
